Source: ChEMBL document CHEMBL4673190, “Recent developments in anticancer kinase inhibitors based on the pyrazolo[3,4-d]pyrimidine scaffold” (RSC Med Chem, 2020)
One block for each compound: values may come before it.

How the values were obtained:
[1] = molecular target: Cyclin-dependent kinase 2/cyclin E1 (Homo sapiens, UniProt P24941); test: Inhibition of CDK2/cyclin E (unknown origin) expressed in baculovirus infected Sf21 insect cells using histone H1 as substrate in presence of [gamma33P]ATP
[2] = species: Homo sapiens; test: Selectivity index, ratio of IC50 for human JAK2 expressed in baculovirus expression system to IC50 for human JAK3 expressed in baculovirus expression system
[3] = species: Homo sapiens; test: Selectivity index, ratio of IC50 for human JAK1 expressed in baculovirus expression system to IC50 for human JAK3 expressed in baculovirus expression system
[4] = molecular target: Vascular endothelial growth factor receptor 2 (Homo sapiens, UniProt P35968); test: Inhibition of N-terminal GST-tagged human VEGFR2 (805 to 1356 residues) expressed in a baculovirus infected Sf9 insect cell incubated for 45 mins by Kinase-Glo max reagent-based luminescence assay
[5] = molecular target: T1, Tyrosine-protein kinase JAK3 (Homo sapiens, UniProt P52333); test: Inhibition of JAK3 (unknown origin)
T1 sequence (P52333 whole entry): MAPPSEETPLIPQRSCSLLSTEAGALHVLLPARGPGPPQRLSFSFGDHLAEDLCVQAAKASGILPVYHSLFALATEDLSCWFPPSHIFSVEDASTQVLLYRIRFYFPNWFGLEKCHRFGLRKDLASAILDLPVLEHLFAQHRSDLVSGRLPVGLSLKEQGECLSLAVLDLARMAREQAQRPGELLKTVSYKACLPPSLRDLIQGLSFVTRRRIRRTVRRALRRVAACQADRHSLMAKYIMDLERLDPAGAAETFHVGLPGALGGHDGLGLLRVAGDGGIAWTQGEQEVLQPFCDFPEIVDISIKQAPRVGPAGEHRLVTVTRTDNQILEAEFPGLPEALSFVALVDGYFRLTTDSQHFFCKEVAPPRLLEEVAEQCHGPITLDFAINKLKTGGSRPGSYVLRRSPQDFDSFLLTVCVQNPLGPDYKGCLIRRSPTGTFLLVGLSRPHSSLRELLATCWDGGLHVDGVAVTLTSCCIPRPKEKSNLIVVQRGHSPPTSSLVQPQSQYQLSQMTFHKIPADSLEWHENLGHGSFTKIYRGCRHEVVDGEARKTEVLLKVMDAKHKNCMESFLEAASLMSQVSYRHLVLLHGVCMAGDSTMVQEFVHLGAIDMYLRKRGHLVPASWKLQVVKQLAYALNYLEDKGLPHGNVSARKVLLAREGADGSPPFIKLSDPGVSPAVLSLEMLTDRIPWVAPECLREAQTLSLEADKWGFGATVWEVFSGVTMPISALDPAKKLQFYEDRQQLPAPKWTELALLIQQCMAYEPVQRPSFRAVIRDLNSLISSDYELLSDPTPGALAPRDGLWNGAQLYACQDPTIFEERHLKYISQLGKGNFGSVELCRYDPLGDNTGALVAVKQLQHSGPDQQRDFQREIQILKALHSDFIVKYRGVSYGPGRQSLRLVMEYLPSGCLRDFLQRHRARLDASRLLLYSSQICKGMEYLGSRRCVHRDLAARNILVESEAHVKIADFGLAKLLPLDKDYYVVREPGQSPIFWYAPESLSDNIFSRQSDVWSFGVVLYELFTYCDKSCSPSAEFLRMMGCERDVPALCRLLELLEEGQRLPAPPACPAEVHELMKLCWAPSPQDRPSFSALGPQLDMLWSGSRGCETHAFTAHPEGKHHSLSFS

[6] = tested on: HepG2; test: Cytotoxicity against human HepG2 cells incubated for 72 hrs by MTT assay; type: functional, cell-based; conditions: HepG2, 72 h
[7] = tested on: A549; test: Cytotoxicity against human A549 cells incubated for 72 hrs by MTT assay; type: functional, cell-based; conditions: A549, 72 h
[8] = tested on: MCF7; test: Cytotoxicity against human MCF-7 cells incubated for 72 hrs by MTT assay; type: functional, cell-based; conditions: MCF7, 72 h

Vascular endothelial growth factor receptor 2, sequence (P35968 whole entry, the tested form may be a part): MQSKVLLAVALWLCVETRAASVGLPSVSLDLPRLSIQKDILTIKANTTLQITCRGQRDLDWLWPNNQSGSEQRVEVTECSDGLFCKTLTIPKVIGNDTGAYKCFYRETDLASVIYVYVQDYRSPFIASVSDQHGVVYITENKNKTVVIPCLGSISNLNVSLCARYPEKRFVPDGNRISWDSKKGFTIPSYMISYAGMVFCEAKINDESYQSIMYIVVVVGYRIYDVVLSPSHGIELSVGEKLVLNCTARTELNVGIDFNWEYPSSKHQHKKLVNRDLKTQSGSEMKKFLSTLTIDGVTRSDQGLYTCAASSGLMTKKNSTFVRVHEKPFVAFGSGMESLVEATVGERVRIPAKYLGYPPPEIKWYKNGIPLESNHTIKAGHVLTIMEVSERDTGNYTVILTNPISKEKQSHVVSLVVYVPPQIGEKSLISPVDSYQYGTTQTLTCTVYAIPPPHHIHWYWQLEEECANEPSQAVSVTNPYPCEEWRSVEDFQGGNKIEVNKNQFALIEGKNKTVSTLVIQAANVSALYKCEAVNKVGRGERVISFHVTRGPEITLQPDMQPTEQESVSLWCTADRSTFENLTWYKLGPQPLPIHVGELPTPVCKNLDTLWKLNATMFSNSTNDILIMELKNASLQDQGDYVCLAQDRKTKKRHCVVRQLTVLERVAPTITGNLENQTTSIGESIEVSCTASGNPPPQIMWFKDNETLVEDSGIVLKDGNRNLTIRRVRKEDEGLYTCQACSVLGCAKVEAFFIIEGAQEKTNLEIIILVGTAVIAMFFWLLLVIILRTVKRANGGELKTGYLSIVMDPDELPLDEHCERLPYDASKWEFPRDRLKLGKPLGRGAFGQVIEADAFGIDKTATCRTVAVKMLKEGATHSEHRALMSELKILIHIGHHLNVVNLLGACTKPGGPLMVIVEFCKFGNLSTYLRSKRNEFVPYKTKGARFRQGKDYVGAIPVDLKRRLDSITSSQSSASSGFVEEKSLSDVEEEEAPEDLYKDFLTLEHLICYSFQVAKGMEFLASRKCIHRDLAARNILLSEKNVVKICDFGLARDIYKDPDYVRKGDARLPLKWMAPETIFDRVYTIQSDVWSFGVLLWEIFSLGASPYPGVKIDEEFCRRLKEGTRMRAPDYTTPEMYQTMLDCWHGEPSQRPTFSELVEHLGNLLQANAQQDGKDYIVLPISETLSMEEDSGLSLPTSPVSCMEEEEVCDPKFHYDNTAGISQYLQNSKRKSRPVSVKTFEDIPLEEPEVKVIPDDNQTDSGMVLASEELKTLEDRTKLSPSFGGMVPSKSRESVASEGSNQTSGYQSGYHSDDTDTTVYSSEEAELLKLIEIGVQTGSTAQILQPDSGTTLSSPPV

IC50 [1]: 5.1 µM
SMILES: O=[N+]([O-])c1cccc(Nc2nc(SCCc3ccccc3)nc3[nH]ncc23)c1

Ratio IC50 [2]: > 376 | Ratio IC50 [3]: > 376
SMILES: C=CC(=O)Nc1cccc(Cn2ncc3cnc(Nc4cnn(CCOC)c4)nc32)c1

IC50 [1]: 6.8 µM
SMILES: O=C(Oc1nc(SCCc2ccccc2)nc2[nH]ncc12)c1cc2ccccc2o1

IC50 [4]: 0.22 µM
SMILES: COc1ccc(-n2nc(C)c3c(Nc4ccc(NC(=O)Nc5ccc(Cl)c(C(F)(F)F)c5)cc4)ncnc32)cc1

IC50 [5]: 0.0016 µM
SMILES: C[C@@H]1CCN(C(=O)CC#N)C[C@@H]1N(C)c1ncnc2[nH]ncc12

SMILES: Cc1c(C(=O)Nc2ccc(Oc3ncnc4c3cnn4C)c(F)c2)nnn1-c1ccc(F)cc1
EC50 [6]: ≤ 10 µM | EC50 [7]: ≤ 10 µM | EC50 [8]: ≤ 10 µM
